Measurements reported in BindingDB's records for doi:10.7270/Q23F4N3R (Burnham Center For Chemical Genomics, 2011).

Assay: hexokinase 1 inhibition, dose response, selectivity assay for HKDC1 inhibitor project, biochemical (AID 504763)
Conditions: not given
`O=C(O)[C@@H](c1ccccc1)N1Cc2ccccc2C1=O` gave an IC50 of over 80 µM.
With `O=[N+]([O-])c1ccc(Sc2nc3ccccc3o2)c([N+](=O)[O-])c1` [MLS000532050] the IC50 was over 80 µM.
With `CCCCC[C@H](O)/C=C/[C@@H]1[C@@H](C/C=C\CCCC(=O)OC)[C@@H](O)C[C@H]1O` [MLS000028823] the IC50 was over 80 µM.
`O=C(O)c1ccc(S(=O)(=O)N=C2C=C(Nc3ccccc3F)C(=O)c3ccccc32)cc1` showed an IC50 of 6.02 µM.
With `O=c1c2ccccc2nc(/C=C/c2cccnc2)n1Cc1ccccc1` [MLS000709026] the IC50 was over 80 µM.
`Cc1cccc(N2C(=O)NC(=O)C(=Cc3cc(C)n(-c4sc5c(c4C#N)CCCC5)c3C)C2=O)c1C` [2-[3-[(E)-[1-(2,3-dimethylphenyl)-2,4,6-trioxo-1,3-diazinan-5-ylidene]methyl]-2,5-dimethylpyrrol-1-yl]-4,5,6,7-tetrahydro-1-benzothiophene-3-carbonitrile] gave an IC50 of over 80 µM.
`COc1ccc(-n2c(C)cc(C(=O)CCl)c2C)cc1` [2-chloranyl-1-[1-(4-methoxyphenyl)-2,5-dimethyl-pyrrol-3-yl]ethanone] showed an IC50 of over 80 µM.
`O=C(O)c1ccc(N=Cc2c(O)ccc3ccccc23)cc1` [MLS001205050] showed an IC50 of 70.8 µM.
Compound `COc1cc2c(cc1OC)-c1c(OC)c(OC)c(OC)c3ccnc(c13)C2=O` [MLS000574936] has an IC50 of 10.1 µM.
Compound `CCc1nc2c(c(=O)c3ccccc3n2C)c(=O)n1-c1ccc(F)cc1` [SMR000221205] has an IC50 of 8.41 µM.
`COc1cc(NC(=O)c2cnc(N)s2)cc(C(=O)Nc2cccc(C(F)(F)F)c2)c1` [2-amino-N-[3-methoxy-5-[[3-(trifluoromethyl)phenyl]carbamoyl]phenyl]-1,3-thiazole-5-carboxamide] showed an IC50 of over 80 µM.
In the case of `O=c1c2ccccc2nc2n1CCC2` [2,3-dihydropyrrolo[2,1-b]quinazolin-9(1H)-one], the IC50 is reported as over 80 µM.
Work on `CCOC(=O)C1=C(Cc2ccc(OC)cc2)C(=O)c2ccccc2C1=O` [SMR000136995] yielded an IC50 of 12.8 µM.
With `O=C(C=Cc1ccc(Br)cc1)NC(=S)Nc1ccc(S(=O)(=O)Nc2nccs2)cc1` [(E)-3-(4-bromophenyl)-N-[[4-(1,3-thiazol-2-ylsulfamoyl)phenyl]carbamothioyl]prop-2-enamide] the IC50 was over 80 µM.

Same assay, conditions: inactive by the depositor's call
In the case of `COC(=O)c1ccccc1NC1=CC(=NS(=O)(=O)c2cccs2)c2ccccc2C1=O` [methyl 2-[[(4E)-1-oxidanylidene-4-thiophen-2-ylsulfonylimino-naphthalen-2-yl]amino]benzoate], the IC50 is reported as 57 µM.
